The record followed here is BindingDB's records for doi:10.7270/Q2M61HPT (Nmmlsc, 2008).

The term EC50 denotes the concentration that produces a half-maximal response. Lower therefore signals a more potent agent.

For this experiment, the target named is Glutathione S-transferase class-mu 26 kDa isozyme (Schistosoma japonicum, UniProt P08515). In words: GST–glutathione interaction disruption – biochemical, multiplex beads, flow cytometry, HPSMTB buffer, profiling panel (AID 1324). (A flow cytometer gives signals particle by particle.)
Chain of Glutathione S-transferase class-mu 26 kDa isozyme (P08515 2-218 limits assumed): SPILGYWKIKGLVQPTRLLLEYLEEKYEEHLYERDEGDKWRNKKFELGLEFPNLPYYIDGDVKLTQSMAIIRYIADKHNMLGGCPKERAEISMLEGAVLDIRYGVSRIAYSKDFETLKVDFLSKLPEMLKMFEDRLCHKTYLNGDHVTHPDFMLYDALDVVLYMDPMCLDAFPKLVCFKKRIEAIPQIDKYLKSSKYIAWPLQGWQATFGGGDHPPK
In turn, `O=[N+]([O-])c1ccc(N=NCc2ccc(O)c(O)c2O)c(S(=O)(=O)N2CCOCC2)c1` [MLS000336720] displayed a 50% effective concentration (EC50) of 24 µM. The same measure for `COc1cccc(CN=Nc2nn3cnnc3c3ccccc23)c1` [N-[1-(3-Methoxy-phenyl)-meth-(E)-ylidene]-N'-[1,2,4]triazolo[3,4-a]phthalazin-6-yl-hydrazine]: 7.28 µM; for `COc1cc(CN=Nc2nn3cnnc3c3ccccc23)ccc1O` [(4E)-2-methoxy-4-[[2-([1,2,4]triazolo[3,4-a]phthalazin-6-yl)hydrazinyl]methylidene]cyclohexa-2,5-dien-1-one]: 2.36 µM.

Compound `CN(C)[C@@H]1C(=O)C(C(=O)NCN2CCCC2)C(=O)[C@@]2(O)C(=O)C3C(=O)c4c(O)cccc4[C@@](C)(O)C3CC12` (stereo partly drawn) [(2Z,4S,6S,12aS)-4-(dimethylamino)-6,10,11,12a-tetrahydroxy-2-[hydroxy-(1-pyrrolidinylmethylamino)methylidene]-6-methyl-4,4a,5,5a-tetrahydrotetracene-1,3,12-trione] came in with an EC50 of 21.4 µM. Against the preceding compound, the EC50 is about 9.1-fold higher.
